Experimental data reported in patent US10570122B2, “Compounds with anti-tumoral activity” (AB Science, priority 2015, dated 2020).

How the values were obtained:
[1] = test system: CALU6; assay: CellTiter-Blue cell-based survival/proliferation assay, CALU6; conditions: Homo sapiens, Calu-6; CALU6 lung tumor cell line, 48 h
How it was run: (§1)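 Tenfold compound dilutions (0–10 μM) were added to 1·10^4 cells/well. Plates incubated 48 h at 37 °C. CellTiter-Blue reduction (4 h, 37 °C) was read as fluorescence at 590 nm, background-corrected with a cell-free blank.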

[2] = test system: U2OS; assay: CellTiter-Blue cell-based survival/proliferation assay, U2OS; conditions: Homo sapiens; U2OS osteosarcoma cell line, 48 h
Procedure: (§2) Cell-Based Proliferation Screening of Compounds
(§3) CellTiter-Blue cell-based survival/proliferation assay (Promega G8080) was performed on tumor cell lines. A total of 1·10^4 cells/well/50 μl were seeded in a 96-wells plate. Treatment was initiated by addition of a 2× drug solution of 1/10 serial dilutions ranging from 0 to 10 μM. Cells were grown for 48 h at 37° C. and then incubated with 10 μl/well of Promega CellTiter-Bleue reagent for 4 h at 37° C. The amount of resorufin dye formed was quantified by its fluorescence emission at 590 nm using a scanning multiwell spectrophotometer (OPTIMA, BMG labtech, France). A blank well without cells was used as a background control for the spectrophotometer.

[3] = test system: OPM2; assay: CellTiter-Blue cell-based survival/proliferation assay, OPM2; conditions: Homo sapiens, OPM-2, Myeloma cell line OPM2, 48 h, read-out: Anti-tumoral activity (measured IC50) OPM2
How it was run: as §1

[4] = test system: A498; assay: CellTiter-Blue cell-based survival/proliferation assay, A498; conditions: Homo sapiens; A498 kidney tumor cell line, 48 h
How it was run: as §1

[5] = test system: HEP2; assay: CellTiter-Blue cell-based survival/proliferation assay, HEP2; conditions: Homo sapiens, HEp-2; HEP2 head & neck tumor cell line, 48 h
How it was run: as §1

[6] = test system: HGC27; assay: CellTiter-Blue cell-based survival/proliferation assay, HGC27; conditions: Homo sapiens, HGC-27; HGC27 stomach tumor cell line, 48 h
How it was run: as §1

[7] = test system: REC1; assay: CellTiter-Blue cell-based survival/proliferation assay, REC1; conditions: Homo sapiens, Lymphoma cell line REC1, 48 h, read-out: Anti-tumoral activity (measured IC50) REC1
How it was run: as §1

[8] = test system: CLS354; assay: CellTiter-Blue cell-based survival/proliferation assay, CLS354; conditions: Homo sapiens, CLS-354; CLS354_4 head & neck tumor cell line, 48 h
How it was run: as §1

[9] = test system: MDAMB231; assay: CellTiter-Blue cell-based survival/proliferation assay, MDAMB231; conditions: Homo sapiens, MDA-MB-231; MDAMB231 breast tumor cell line, 48 h
How it was run: as §1

[10] = test system: HUT78; assay: CellTiter-Blue cell-based survival/proliferation assay, HUT78; conditions: Homo sapiens, Lymphoma cell line HUT78, 48 h, read-out: Anti-tumoral activity (measured IC50) HUT78
How it was run: as §1

[11] = test system: MESSA; assay: CellTiter-Blue cell-based survival/proliferation assay, MESSA; conditions: Homo sapiens, MES-SA; MESSA ovary tumor cell line, 48 h
How it was run: as §1

[12] = test system: TOV112D; assay: CellTiter-Blue cell-based survival/proliferation assay, TOV112D; conditions: Homo sapiens; TOV112D ovary tumor cell line, 48 h
How it was run: as §1

[13] = test system: HL60; assay: CellTiter-Blue cell-based survival/proliferation assay, HL60; conditions: Homo sapiens, HL-60, Leukemia cell line HL60, 48 h, read-out: Anti-tumoral activity (measured IC50) HL60
How it was run: as §1

[14] = test system: PANC1; assay: CellTiter-Blue cell-based survival/proliferation assay, PANC1; conditions: Homo sapiens, PANC-1; PANC_1 pancreas tumor cell line, 48 h
How it was run: as §1

[15] = test system: PC3; assay: CellTiter-Blue cell-based survival/proliferation assay, PC3; conditions: Homo sapiens, PC-3; PC3 prostate tumor cell line, 48 h
How it was run: as §1

[16] = test system: BT20; assay: CellTiter-Blue cell-based survival/proliferation assay, BT20; conditions: Homo sapiens, BT-20; BT20 breast tumor cell line, 48 h
How it was run: as §1

[17] = test system: A375; assay: CellTiter-Blue cell-based survival/proliferation assay, A375; conditions: Homo sapiens, A-375; A375 melanoma cell line, 48 h
Procedure: as §2, §3

[18] = test system: U118; assay: CellTiter-Blue cell-based survival/proliferation assay, U118; conditions: Homo sapiens; U118 glioblastoma cell line, 48 h
Procedure: as §2, §3

[19] = test system: DU145; assay: CellTiter-Blue cell-based survival/proliferation assay, DU145; conditions: Homo sapiens, DU-145; DU145 prostate tumor cell line, 48 h
How it was run: as §1

[20] = test system: BXPC3; assay: CellTiter-Blue cell-based survival/proliferation assay, BXPC3; conditions: Homo sapiens, BXPC-3; BXPC3 pancreas tumor cell line, 48 h
How it was run: as §1

[21] = test system: KARPAS299; assay: CellTiter-Blue cell-based survival/proliferation assay, KARPAS299; conditions: Homo sapiens, KARPAS-299, Lymphoma cell line KARPAS299, 48 h, read-out: Anti-tumoral activity (measured IC50) KARPAS299
How it was run: as §1

[22] = test system: HCT116; assay: CellTiter-Blue cell-based survival/proliferation assay, HCT116; conditions: Homo sapiens, HCT-116; HCT116 colorectal tumor cell line, 48 h
How it was run: as §1

[23] = test system: U87MG; assay: CellTiter-Blue cell-based survival/proliferation assay, U87MG; conditions: Homo sapiens, U-87 MG; U87_MG glioblastoma cell line, 48 h
Procedure: as §2, §3

[24] = test system: H1299; assay: CellTiter-Blue cell-based survival/proliferation assay, H1299; conditions: Homo sapiens, NCI-H1299; H1299 lung tumor cell line, 48 h
How it was run: as §1

[25] = test system: SW579; assay: CellTiter-Blue cell-based survival/proliferation assay, SW579; conditions: Homo sapiens; SW579 head & neck tumor cell line, 48 h
How it was run: as §1

[26] = test system: DLD1; assay: CellTiter-Blue cell-based survival/proliferation assay, DLD1; conditions: Homo sapiens, DLD-1; DLD_1 colorectal tumor cell line, 48 h
How it was run: as §1

[27] = test system: PLCPRF5; assay: CellTiter-Blue cell-based survival/proliferation assay, PLCPRF5; conditions: Homo sapiens, PLC-PRF-5; PLC_PRF5 liver tumor cell line, 48 h
How it was run: as §1

[28] = test system: A4513; assay: CellTiter-Blue cell-based survival/proliferation assay, A4513; conditions: Homo sapiens; A4513 Ewing cell line, 48 h
Procedure: as §2, §3

[29] = test system: AGS; assay: CellTiter-Blue cell-based survival/proliferation assay, AGS; conditions: Homo sapiens; AGS stomach tumor cell line, 48 h
How it was run: as §1

[30] = test system: HEPG2; assay: CellTiter-Blue cell-based survival/proliferation assay, HEPG2; conditions: Homo sapiens; HEPG2 liver tumor cell line, 48 h
How it was run: as §1

[31] = test system: ACHN; assay: CellTiter-Blue cell-based survival/proliferation assay, ACHN; conditions: Homo sapiens; ACHN kidney tumor cell line, 48 h
How it was run: as §1

[32] = test system: MELWO; assay: CellTiter-Blue cell-based survival/proliferation assay, MELWO; conditions: Homo sapiens; MEL_WO melanoma cell line, 48 h
Procedure: as §2, §3

[33] = test system: A549; assay: CellTiter-Blue cell-based survival/proliferation assay, A549; conditions: Homo sapiens; A549 lung tumor cell line, 48 h
How it was run: as §1

SMILES | IC50 [1] | IC50 [2] | IC50 [3] | IC50 [4] | IC50 [5] | IC50 [6] | IC50 [7] | IC50 [8] | IC50 [9] | IC50 [10] | IC50 [11] | IC50 [12] | IC50 [13] | IC50 [14] | IC50 [15] | IC50 [16] | IC50 [17] | IC50 [18] | IC50 [19] | IC50 [20] | other results
CCOCc1ccc(C)c(Nc2nc(-c3ccc(-n4cccn4)cc3)cs2)c1 [Example 015, (5-Ethoxymethyl-2-methyl-phenyl)-[4-(4-pyrazol-1-yl-phenyl)-thiazol-2-yl]-amine] | > 1000 nM | > 1000 nM | 100 to 500 nM | 500 to 1000 nM | > 1000 nM | > 1000 nM | ≤ 100 nM | ≤ 100 nM | > 1000 nM | ≤ 100 nM | > 1000 nM | 500 to 1000 nM | ≤ 100 nM | > 1000 nM | ≤ 100 nM | > 1000 nM | > 1000 nM | > 1000 nM | > 1000 nM | > 1000 nM | IC50 [21]: ≤ 100 nM; IC50 [22]: > 1000 nM; IC50 [23]: > 1000 nM; IC50 [24]: > 1000 nM; IC50 [25]: > 1000 nM; IC50 [26]: > 1000 nM; IC50 [27]: > 1000 nM; IC50 [28]: 100 to 500 nM; IC50 [29]: > 1000 nM; IC50 [30]: > 1000 nM; IC50 [31]: > 1000 nM; IC50 [32]: > 1000 nM; IC50 [33]: > 1000 nM
CCOCc1ccc(C)c(Nc2ncc(-c3ccc(-n4cccn4)c(OC)c3)o2)c1 [Example 002, (5-Ethoxymethyl-2-methyl-phenyl)-[5-(3-methoxy-4-pyrazol-1-yl-phenyl)-oxazol-2-yl]-amine] | > 1000 nM | > 1000 nM | > 1000 nM | > 1000 nM | > 1000 nM | > 1000 nM | > 1000 nM | > 1000 nM | > 1000 nM | > 1000 nM | > 1000 nM | > 1000 nM | > 1000 nM | > 1000 nM | > 1000 nM | > 1000 nM | > 1000 nM | > 1000 nM | > 1000 nM | > 1000 nM | IC50 [21]: > 1000 nM; IC50 [22]: > 1000 nM; IC50 [23]: > 1000 nM; IC50 [24]: > 1000 nM; IC50 [25]: > 1000 nM; IC50 [26]: > 1000 nM; IC50 [27]: > 1000 nM; IC50 [28]: > 1000 nM; IC50 [29]: > 1000 nM; IC50 [30]: > 1000 nM; IC50 [31]: > 1000 nM; IC50 [32]: > 1000 nM; IC50 [33]: > 1000 nM
CCOCc1ccc(C)c(Nc2nc(-c3ccc(N4CCNC4=O)cc3)ns2)c1 [Example 010, 1-{4-[5-(5-Ethoxymethyl-(2-methyl-phenylamino))-[1,2,4]thiadiazol-3-yl]-phenyl}-imidazolidin-2-one] | 500 to 1000 nM | > 1000 nM | ≤ 100 nM | > 1000 nM | ≤ 100 nM | ≤ 100 nM | ≤ 100 nM | ≤ 100 nM | > 1000 nM | ≤ 100 nM | > 1000 nM | ≤ 100 nM | ≤ 100 nM | > 1000 nM | ≤ 100 nM | > 1000 nM | ≤ 100 nM | > 1000 nM | > 1000 nM | > 1000 nM | IC50 [21]: ≤ 100 nM; IC50 [22]: ≤ 100 nM; IC50 [23]: > 1000 nM; IC50 [24]: 100 to 500 nM; IC50 [25]: ≤ 100 nM; IC50 [26]: > 1000 nM; IC50 [27]: > 1000 nM; IC50 [28]: > 1000 nM; IC50 [29]: > 1000 nM; IC50 [30]: > 1000 nM; IC50 [31]: ≤ 100 nM; IC50 [32]: ≤ 100 nM; IC50 [33]: > 1000 nM
